From PubChem BioAssay AID1963961 (Molecular Pharmacology Branch, DTP, NCI, 2024)

System: K98450-129-R-PDC multicell spheroids, viability
Assay: Anticancer human tumor K98450-129-R-PDC patient-derived colon adenocarcinoma cell line growth inhibition [PI3K]
Conditions: for IC50: curve of first compound; for viability, T/C: stronger effect = lower value
Procedure, shortened: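 Complex 3D spheroids (cancer cells + endothelial HUVEC + mesenchymal stem cells); drug pairs of targeted agent x inavolisib/alpelisib/duvelisib/copanlisib; half-log series from ~Cmax, max 10 microM if Cmax unknown; endpoint viability.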

[1] = second compound 0.0316 µM, first compound 0.0316 µM
[2] = second compound 0.0316 µM, first compound 0.1 µM
[3] = second compound 0.1 µM, first compound 0.0316 µM
[4] = second compound 0.1 µM, first compound 0.1 µM
[5] = second compound 0.316 µM, first compound 0.0316 µM
[6] = second compound 0.316 µM, first compound 0.1 µM
[7] = second compound 1 µM, first compound 0.0316 µM
[8] = second compound 1 µM, first compound 0.1 µM
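Further: spheroids exposed to agents for seven days before read-out.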

`CC(=O)c1c(C)c2cnc(Nc3ccc(N4CCNCC4)cn3)nc2n(C2CCCC2)c1=O` + COc1c(OCCCN2CCOCC2)ccc2c3n(c(=NC(=O)c4cnc(N)nc4)nc12)CCN3 showed an IC50 (second compound 0.00316 µM) of over 100 nM, an IC50 (second compound 0.01 µM) of over 100 nM and an IC50 (second compound 0.0316 µM) of over 100 nM. For the same molecule, the IC50 (second compound 0.1 µM) was over 100 nM, the IC50 (second compound 0.316 µM) was over 100 nM and the IC50 (second compound 1 µM) was 46 nM. It also gave a viability, T/C (second compound 0.00316 µM, first compound 0.000316 µM) of 114%, a viability, T/C (second compound 0.00316 µM, first compound 0.001 µM) of 119% and a viability, T/C (second compound 0.00316 µM, first compound 0.00316 µM) of 93.7%. The viability, T/C (second compound 0.00316 µM, first compound 0.01 µM) was 90.5%, the viability, T/C (second compound 0.00316 µM, first compound 0.0316 µM) was 101% and the viability, T/C (second compound 0.00316 µM, first compound 0.1 µM) was 95.8%. For the same molecule, the viability, T/C (second compound 0.01 µM, first compound 0.000316 µM) was 109%, the viability, T/C (second compound 0.01 µM, first compound 0.001 µM) was 101% and the viability, T/C (second compound 0.01 µM, first compound 0.00316 µM) was 97.3%. For the same molecule, the viability, T/C (second compound 0.01 µM, first compound 0.01 µM) was 91.1%, the viability, T/C (second compound 0.01 µM, first compound 0.0316 µM) was 98.1% and the viability, T/C (second compound 0.01 µM, first compound 0.1 µM) was 92.4%. The viability, T/C (second compound 0.0316 µM, first compound 0.000316 µM) was 85.7%, the viability, T/C (second compound 0.0316 µM, first compound 0.001 µM) was 96.7% and the viability, T/C (second compound 0.0316 µM, first compound 0.00316 µM) was 97.3%. The viability, T/C (second compound 0.0316 µM, first compound 0.01 µM) was 87.6%, the viability, T/C [1] was 86.5% and the viability, T/C [2] was 70.4%. The viability, T/C (second compound 0.1 µM, first compound 0.000316 µM) was 78.9%, the viability, T/C (second compound 0.1 µM, first compound 0.001 µM) was 81.1% and the viability, T/C (second compound 0.1 µM, first compound 0.00316 µM) was 74.3%. The viability, T/C (second compound 0.1 µM, first compound 0.01 µM) was 67%, the viability, T/C [3] was 79.3% and the viability, T/C [4] was 72.1%. It also gave a viability, T/C (second compound 0.316 µM, first compound 0.000316 µM) of 59%, a viability, T/C (second compound 0.316 µM, first compound 0.001 µM) of 68.7% and a viability, T/C (second compound 0.316 µM, first compound 0.00316 µM) of 65.7%. It also gave a viability, T/C (second compound 0.316 µM, first compound 0.01 µM) of 58.2%, a viability, T/C [5] of 70% and a viability, T/C [6] of 56.1%. The viability, T/C (second compound 1 µM, first compound 0.000316 µM) was 62%, the viability, T/C (second compound 1 µM, first compound 0.001 µM) was 48.5% and the viability, T/C (second compound 1 µM, first compound 0.00316 µM) was 51.6%. For the same molecule, the viability, T/C (second compound 1 µM, first compound 0.01 µM) was 57.7%, the viability, T/C [7] was 57.8% and the viability, T/C [8] was 38.8%.

For `Cn1nccc1Nc1nccc(-c2ccn(C(CO)c3ccc(Cl)c(F)c3)c(=O)c2)n1` (centres undefined) + CC(Nc1ncnc2nc[nH]c12)c1cc2cccc(Cl)c2c(=O)n1-c1ccccc1, the IC50 (second compound 0.0316 µM) was over 10000 nM, the IC50 (second compound 0.1 µM) was over 10000 nM and the IC50 (second compound 0.316 µM) was over 10000 nM. It also gave an IC50 (second compound 1 µM) of over 10000 nM, an IC50 (second compound 3.16 µM) of over 10000 nM and an IC50 (second compound 10 µM) of over 10000 nM. The viability, T/C [1] was 110%, the viability, T/C [2] was 102% and the viability, T/C (second compound 0.0316 µM, first compound 0.316 µM) was 103%. For the same molecule, the viability, T/C (second compound 0.0316 µM, first compound 1 µM) was 94.5%, the viability, T/C (second compound 0.0316 µM, first compound 3.16 µM) was 88.9% and the viability, T/C (second compound 0.0316 µM, first compound 10 µM) was 85.8%. The viability, T/C [3] was 106%, the viability, T/C [4] was 100% and the viability, T/C (second compound 0.1 µM, first compound 0.316 µM) was 91.3%. For the same molecule, the viability, T/C (second compound 0.1 µM, first compound 1 µM) was 93.5%, the viability, T/C (second compound 0.1 µM, first compound 3.16 µM) was 94.6% and the viability, T/C (second compound 0.1 µM, first compound 10 µM) was 87%. The viability, T/C [5] was 94.5%, the viability, T/C [6] was 115% and the viability, T/C (second compound 0.316 µM, first compound 0.316 µM) was 91.6%. The viability, T/C (second compound 0.316 µM, first compound 1 µM) was 92.7%, the viability, T/C (second compound 0.316 µM, first compound 3.16 µM) was 96.6% and the viability, T/C (second compound 0.316 µM, first compound 10 µM) was 56.8%. The viability, T/C [7] was 89.5%, the viability, T/C [8] was 103% and the viability, T/C (second compound 1 µM, first compound 0.316 µM) was 94.6%. For the same molecule, the viability, T/C (second compound 1 µM, first compound 1 µM) was 85.4%, the viability, T/C (second compound 1 µM, first compound 3.16 µM) was 94% and the viability, T/C (second compound 1 µM, first compound 10 µM) was 81.4%. It also gave a viability, T/C (second compound 3.16 µM, first compound 0.0316 µM) of 79.2%, a viability, T/C (second compound 3.16 µM, first compound 0.1 µM) of 86.2% and a viability, T/C (second compound 3.16 µM, first compound 0.316 µM) of 95%. For the same molecule, the viability, T/C (second compound 3.16 µM, first compound 1 µM) was 93.8%, the viability, T/C (second compound 3.16 µM, first compound 3.16 µM) was 106% and the viability, T/C (second compound 3.16 µM, first compound 10 µM) was 84.6%. For the same molecule, the viability, T/C (second compound 10 µM, first compound 0.0316 µM) was 90%, the viability, T/C (second compound 10 µM, first compound 0.1 µM) was 80% and the viability, T/C (second compound 10 µM, first compound 0.316 µM) was 78.9%. It also gave a viability, T/C (second compound 10 µM, first compound 1 µM) of 87.2%, a viability, T/C (second compound 10 µM, first compound 3.16 µM) of 80.7% and a viability, T/C (second compound 10 µM, first compound 10 µM) of 66.3%.
